Test results from patent publication US8759537B2, “3H-imidazo [4, 5-C] pyridine-6-carboxamides as anti-inflammatory agents” (Boehringer Ingelheim International GmbH, priority 2010, dated 2014).

Columns and labels:
[1] = molecular target: T1, mPGES-1 (Homo sapiens (Human), UniProt O14684); assay: mPGES-1 enzyme assay (HTRF detection of PGE2); type: biochemical; conditions: recombinant human mPGES-1 microsomes, PGH2 2 μM; read-out: mPGES-1 inhibitory effect in the enzyme assay, IC50
Method: Microsomes from Rosetta E. coli bacteria expressing recombinant human mPGES-1 can be derived as described below:
Inoculate 5 ml LB with Ampicilin (50 μg/ml) and Chloramphenicol (34 μg/ml) with bacteria from freeze culture. Incubate 8 h at 37° C. with 200 rpm. Thereafter, inoculate 500-1000 ml LB containing Amp and Chloro with the 5 ml on culture and grow to OD640 of 0.8-1.0. Chill the culture to +4° C. before induction. Induce the culture with IPTG at a final concentration of 400 μM. Express the protein at room temp 18-23° C. with 200 rpm shaking over night.
The following steps can be performed on the following day: • 1. Spin down the cells in 250 ml centrifuge flasks for 15 min at 7000 rpm (Beckmann Coulte Avanti J-E centrifuge) • 2. Dissolve the pellet from 250 ml culture in 12.5 ml homogenization buffer • 3. (15 mM Tris-HCL pH8, 1 mM EDTA pH8, […], 2.5 mM GSH, 1 Tablet Protease inhibitor per 50 ml buffer) • 4. […] Add 2.5 ml MgCl2 (100 mM) and DNase 12.5 μl (0.8 mg/ml) and incubate on ice for 30 min • 6. Spin down the bacteria debris and save the supernatant, 7000 rpm for 15 min • 7. Isolate the protein containing membranes in the supernatant by ultracentrifugation 120000×g for 2 hour at 4° C. (Sorvall T880 rotor). • 8. Discard the supernatant and dissolve the pellet in 20 mM Potassium phosphate buffer pH7.4 (KH2PO4 and K2HPO4) buffer by sonication (5×10 s, 30% of a 50 W sonifier) and aliquot the enzyme and store aliquots at −80° C.
Before each experiment is performed an aliquot of the enzyme is thawed and it can then be dissolved in 0.1 M Potassium phosphate buffer pH7.4 (KH2PO4 and K2HPO4) buffer containing 2.5 mM GSH.
The aim of this assay is to determine the affinity of a test compound for the mPGES-1 enzyme.
47 μl of recombinant human mPGES-1 (˜0.5 μg protein/well) containing microsomal suspension in a buffer containing GSH, (2.5 mmol/L L-Glutathione reduced, dissolved in 0.1 mol/L Phosphat Buffer pH 7.4) is dispensed in a 384-well plate and thereafter 1 μl of the test compound(s) is/are added and incubated for 25 minutes at room temperature. The enzyme reaction is started by the addition of 2 ul PGH2 (final conc. 2 μM) dissolved in water-free Diglyme. After 60 seconds the reaction is terminated by addition of a stop solution containing FeCl2 (10 μL 0.074 mol/l FeCl2). The samples are diluted between 1:25 in PBS (Phosphate Buffered Saline). 10 μl of the diluted samples are transferred to 384-well low volume plate. In order to quantify the amount of PGE2 that has been formed, a homogenous time resolved fluorescent (HTRF) detecting of PGE2 has been performed using a commercially available kit from Cisbio according to the manufactures recommendation. […] Briefly, the diluted samples are mixed with 5 μl PGE2-d2 conjungate and 5 μl anti-PGE2 cryptate conjungate. After an incubation period of the plates over night, the fluorescence is measured by the use of an appropriate microplate reader.
The quantification plate contains also wells with different concentrations of PGE2 as calibration curve for the calculation of the PGE2 concentrations from the HTRF ratio values.
From all mPGES enzyme assay the background is subtracted and the IC50 is calculated over a nonlinear regression with conventional software.

[2] = molecular target: T1, mPGES-1; assay: A549 cell-based assay (PGE2 formation, IL-1β stimulated, 50% human serum); conditions: A549 cells
Method: Although the enzymatic assay is a high throughput assay the disadvantage is that it uses a recombinant protein which is not in its natural environment. Accordingly a cellular assay was established in which a cell line of human origin (A549) expressing the mPGES-1 protein was used. In addition in order to mimic the situation in humans in which compounds can be bound to plasma proteins 50% human serum is added in the assay.
Cells were detached using Trypsin-EDTA. A549 cells were seeded in a 384-well collagene plate at a density of 7000 cells/well (50 μl) in F-12 medium containing 1% Penicillin-Streptomycin and 50% human serum. The cells were allowed to attach for 3-4 h. […] The total volume is 100 μl.
Concentrations of PGE2 in the cell free medium (10 μl) were measured using a commercially available HTRF kit from Cisbio (as described above). The PGE2 formation in the absence of test compound was taken as 100%.
IC50 values were derived from at 6-8 point titrations using conventional software.

[3] = IL-1β 5 ng/ml, read-out: mPGES-1 inhibitory effect in the cell assay, IC50

T1 sequence (O14684 whole entry): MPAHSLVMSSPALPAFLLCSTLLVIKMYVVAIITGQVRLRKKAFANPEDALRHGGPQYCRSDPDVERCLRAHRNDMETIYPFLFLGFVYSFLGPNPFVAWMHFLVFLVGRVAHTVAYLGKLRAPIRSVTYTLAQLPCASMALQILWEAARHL

IC50 [1] [nM]	IC50 [2, 3] [nM]	IC50 ([2]; Table C comparison of selected benzimidazoles, read-out: Cell IC50) [nM]	Structure (SMILES)
–	1	–	Cn1c(Nc2c(Cl)ccc(CNC(=O)C(F)F)c2Cl)nc2cc(C(=O)Nc3ccc(F)c(Cl)c3)c(OCC(F)F)cc21 [Example 159]
–	< 1	–	Cn1c(Nc2c(Cl)ccc(CNC(=O)C3CCCC3)c2Cl)nc2cc(C(=O)Nc3ccc(F)c(Cl)c3)c(OCC(F)F)cc21 [Example 160]
–	2	–	Cn1c(Nc2c(Cl)ccc(CNC(=O)C(O)C(F)(F)F)c2Cl)nc2cc(C(=O)Nc3ccc(F)c(Cl)c3)c(OCC(F)F)cc21 (centres unmarked) [Example 161]
–	< 1	–	Cn1c(Nc2c(Cl)ccc(CNC(=O)C(C)(F)F)c2Cl)nc2cc(C(=O)Nc3ccc(F)c(Cl)c3)c(OCC(F)F)cc21 [Example 162]
–	5	–	COCC(=O)NCc1ccc(Cl)c(Nc2nc3cc(C(=O)Nc4ccc(F)c(Cl)c4)c(OCC(F)F)cc3n2C)c1Cl [Example 163]
–	15	–	Cn1c(Nc2c(Cl)ccc(CNC(=O)C(N)C(F)(F)F)c2Cl)nc2cc(C(=O)Nc3ccc(F)c(Cl)c3)c(OCC(F)F)cc21 (centres unmarked) [Example 164]
–	< 1	–	Cn1c(Nc2c(Cl)ccc(CNC(=O)C3(C(F)(F)F)CCCC3)c2Cl)nc2cc(C(=O)Nc3ccc(F)c(Cl)c3)c(OCC(F)F)cc21 [Example 165]
–	7	–	Cn1c(Nc2c(Cl)ccc(CNC(=O)c3ccno3)c2Cl)nc2cc(C(=O)Nc3ccc(F)c(Cl)c3)c(OCC(F)F)cc21 [Example 166]
–	6	–	Cn1c(Nc2c(Cl)ccc(CNC(=O)C3CC(F)(F)C3)c2Cl)nc2cc(C(=O)Nc3ccc(F)c(Cl)c3)c(OCC(F)F)cc21 [Example 167]
–	< 1	–	Cn1c(Nc2c(Cl)ccc(CNC(=O)C3(C)CCCO3)c2Cl)nc2cc(C(=O)Nc3ccc(F)c(Cl)c3)c(OCC(F)F)cc21 (centres unmarked) [Example 170]
–	4	–	Cn1c(Nc2c(Cl)ccc(CNC(=O)C3(O)CC3)c2Cl)nc2cc(C(=O)Nc3ccc(F)c(Cl)c3)c(OCC(F)F)cc21 [Example 171]
–	2	–	Cn1c(Nc2c(Cl)ccc(CNC(=O)C3CCC3)c2Cl)nc2cc(C(=O)Nc3ccc(F)c(Cl)c3)c(OCC(F)F)cc21 [Example 172]
–	< 1	–	Cn1c(Nc2c(Cl)ccc(CNC(=O)C3(C(F)(F)F)CC3)c2Cl)nc2cc(C(=O)Nc3ccc(F)c(Cl)c3)c(OCC(F)F)cc21 [Example 174]
–	< 1	–	Cn1c(Nc2c(Cl)ccc(CNC(=O)C(C)(C)C(F)(F)F)c2Cl)nc2cc(C(=O)Nc3ccc(F)c(Cl)c3)c(OCC(F)F)cc21 [Example 176]

Further lines, the molecule ahead of its results:

Structure (SMILES)	IC50 [1] [nM]	IC50 [2, 3] [nM]	IC50 ([2]; Table C comparison of selected benzimidazoles, read-out: Cell IC50) [nM]
Cn1c(Nc2c(Cl)ccc(CNC(=O)C(C)(C)C)c2Cl)nc2cc(C(=O)N[C@H]3CC[C@H](C(F)(F)F)CC3)c(OCC(F)F)cc21 [Example 1, N-(trans-4-Trifluoromethyl-cyclohex-1-yl)-2-{2,6-dichloro-3-[(2,2-dimethyl-propionylamino)-methyl]-phenylamino}-6-(2,2-difluoro-ethoxy)-1-methyl-1H-benzimidazole-5-carboxylic acid amide]	2	< 1	–
CC(C)(C)C(=O)NCc1ccc(Cl)c(Nc2nc3cc(C(=O)N[C@H]4CC[C@H](C(F)(F)F)CC4)c(OCC(F)F)cc3[nH]2)c1Cl [Example 2, N-(trans-4-Trifluoromethyl-cyclohex-1-yl)-2-{2,6-dichloro-3-[(2,2-dimethyl-propionylamino)-methyl]-phenylamino}-6-(2,2-difluoro-ethoxy)-1H-benzimidazole-5-carboxylic acid amide]	2	3	–
Cn1c(Nc2c(Cl)ccc(CNC(=O)C(C)(C)C)c2Cl)nc2cc(C(=O)N[C@H]3CC[C@H](C(F)(F)F)CC3)c(F)cc21 [Example 3, N-(trans-4-Trifluoromethyl-cyclohex-1-yl)-2-{2,6-dichloro-3-[(2,2-dimethyl-propionylamino)-methyl]-phenylamino}-6-fluoro-1-methyl-1H-benzimidazole-5-carboxylic acid amide]	4	1	–
CC(C)(C)C(=O)NCc1ccc(Cl)c(Nc2nc3cc(C(=O)Nc4ccc(Br)cc4)c(OCC(F)F)cc3[nH]2)c1Cl [Example 4, N-(4-Bromo-phenyl)-2-{2,6-dichloro-3-[(2,2-dimethyl-propionylamino)-methyl]-phenylamino}-6-(2,2-difluoro-ethoxy)-1H-benzimidazole-5-carboxylic acid amide]	4	2	–
Cn1c(Nc2c(Cl)ccc(CNC(=O)C(C)(C)C)c2Cl)nc2cc(C(=O)Nc3ccc(Br)cc3)c(OCC(F)F)cc21 [Example 5, N-(4-Bromo-phenyl)-2-{2,6-dichloro-3-[(2,2-dimethyl-propionylamino)-methyl]-phenylamino}-6-(2,2-difluoro-ethoxy)-1-methyl-1H-benzimidazole-5-carboxylic acid amide]	2	< 1	–
Cn1c(Nc2c(Cl)ccc(CNC(=O)C(C)(C)C)c2F)nc2cc(C(=O)Nc3ccc(Br)cc3)c(OCC(F)F)cc21 [Example 8]	3	< 1	–
Cn1c(Nc2c(F)ccc(CNC(=O)C(C)(C)C)c2F)nc2cc(C(=O)Nc3ccc(Br)cc3)c(F)cc21 [Example 9]	4	79	–
Cn1c(Nc2c(F)ccc(CNC(=O)C(C)(C)C)c2F)nc2cc(C(=O)N[C@H]3CC[C@H](C(F)(F)F)CC3)c(F)cc21 [Example 10]	7	4	–
CC(C)(C)C(=O)NCc1ccc(Cl)c(Nc2nc3cc(C(=O)N[C@H]4CC[C@H](C(F)(F)F)CC4)c(F)cc3[nH]2)c1Cl [Example 12, N-(trans-4-Trifluoromethyl-cyclohex-1-yl)-2-{2,6-dichloro-3-[(2,2-dimethyl-propionylamino)-methyl]-phenylamino}-6-fluoro-1H-benzimidazole-5-carboxylic acid amide]	4	7	–
Cn1c(Nc2c(Cl)ccc(CNC(=O)OC(C)(C)C)c2Cl)nc2cc(C(=O)N[C@H]3CC[C@H](C(F)(F)F)CC3)c(OCC(F)F)cc21 [Example 13, N-(trans-4-Trifluoromethyl-cyclohex-1-yl)-2-{2,6-dichloro-3-[(tert-butoxy-carbonylamino)-methyl]-phenylamino}-6-(2,2-difluoroethoxy)-1-methyl-1H-benzimidazole-5-carboxylic acid amide]	3	28	–
CC(C)(C)C(=O)NCc1ccc(F)c(Nc2nc3cc(C(=O)Nc4ccc(F)c(Cl)c4)c(F)cc3[nH]2)c1F [Example 24]	3	–	–
Cn1c(Nc2c(Cl)ccc(CNC(=O)c3sccc3Cl)c2Cl)nc2cc(C(=O)Nc3ccc(F)c(Cl)c3)c(OCC(F)F)cc21 [Example 168]	–	< 1	–
Cn1c(Nc2c(Cl)ccc(CNC(=O)C(C)(C)C)c2Cl)nc2cc(C(=O)Nc3ccc(F)c(Cl)c3)c(OCCF)cc21 [Example 177, N-(3-Chloro-4-fluoro-phenyl)-2-{2,6-dichloro-3-[(2,2-dimethyl-propionylamino)-methyl]-phenylamino}-6-(2-fluoroethoxy)-1-methyl-1H-benzimidazole-5-carboxylic acid amide]	–	< 1	–
Cn1c(Nc2cc(CNC(=O)C(C)(C)C)ccc2Cl)nc2cc(C(=O)NCC3CC3)c(OCC(F)F)cc21 [[drawing 49] of PCT/EP2010/052799, reference compound]	–	–	> 200
